Where a name gives a salt, the structure may show the parent alone. Read-outs that look alike come from different tables or passages of the source.
How the values were obtained:
STHdh^Q111 cells [1] = assay: 384-well PI (propidium iodide) assay, protection from mHTT induced cell death; format: cell-based, mouse; conditions: compound titrations, serum deprived STHdh^Q111 cells
Experimental: The well-established STHdh^Q111 cell model for HD was employed to identify compounds that can protect neuronal cells from mHTT-dependent cell death. […] The propidium iodide (PI) readout enables an unbiased assessment of cell death by measuring an irreversible step that is common to all cytotoxic mechanisms.
The stress conditions for testing compounds involved incubation of the cells in serum-free medium at 37° C. and 5% CO2.
Prior to compound treatment, medium was removed and the cells washed once with PBS (pH=7.4) after which 45 μl of complete medium was added. Compounds in 5 μl complete medium were added to cells. […] Compounds in serum free medium (5 μl) were added and cells were incubated at 37° C. and 5% CO2.
Image analysis was carried out using the Multiwavelength Cell Scoring application in the MetaXpress software. The nuclear compartment was identified in Ch1 with a threshold intensity of 2,000 above background and the Texas Red compartment was identified in Ch2 with a threshold intensity of 20,000 above background.
For the analyses presented here the Percent Recovery was calculated from the Percent PI positive cells by:
[formula] where positive controls are the STHdh^Q7 cells, and negative controls are the STHdh^Q111 cells treated with DMSO
The LOPAC library was screened in the 384-well PI assay at 30, 10, and 3 μM.

[2] = test system: PKA phosphorylated at threonine 197 (pPKA) in STHdh^Q111 cells; assay: PKA activation assay (pPKA, high content analysis); format: cell-based, mouse; conditions: 24 h serum free conditions
Experimental: The pPKA levels were examined at 24 hours after serum free conditions since this was the condition where the protection of the compounds was measured.
Cells were treated as described for testing in the 384-well PI assay. […] Plates were blocked with 3% BSA in PBS and were incubated with rabbit anti-PKA (αβγ catalytic subunit; EP2606Y; phospho-T197, abcam, Cambridge Mass.) mAb overnight at 4° C. […] Image analysis was carried out using the Multiwavelength Translocation application in the MetaExpress software. The nuclear compartment was identified in Ch1 with a threshold intensity of 5,000 above background (the nuclear mask). The nuclear mask was eroded 1 μm to create the Inner region mask in Ch2. […] The cytoplasmic pKA was measured in a […] ring around the nuclear mask.

STHdh^Q111 cells [3] = format: cell-based; conditions: for toxicity / protection with or of the PKA inhibitor: STHdh^Q111 cells, PI assay conditions; for reduction in the level of protection compared to compound alone: co-incubation with 10 μM H89
[4] = test system: pCREB in the nucleus of STHdh^Q111 cells; assay: Nuclear pCREB high content analysis (surrogate marker for PKA activity); format: cell-based, mouse; conditions: 10 μM H89 co-incubated with protective compounds
Source text: The concentrations used were chosen to be on plateau of their respective activity curves (see FIG. 3). […] Analysis is from triplicate samples run in four independent experiments (Error bars are +/−SE). T-test was used to assess changes in the percent recovery levels relative to the STHdh^Q111 cells treated with compound without H89. […] Analysis was from triplicate samples run in four independent experiments (Error bars are +/−SE). T-test was used to assess changes in the pCREB intensity relative to the STHdhQ111 cells treated with compound without H89.
H89 has been used extensively in the literature as a selective and potent inhibitor of PKA. If the protection from cell death by these compounds involved activation of PKA, then the addition of an inhibitor of PKA would be expected to reverse the protective effects of the compounds. […] Since the primary canonical mechanism of sodium nitroprusside is activation of PKG, and given that H89 is ˜10-fold selective for PKA over PKG, the absence of a marked effect with sodium nitroprusside is not unexpected. […] To confirm inhibition of PKA activity by H89 under the conditions of the PI assay, the levels of nuclear pCREB were measured using high content analysis. Consistent with the heterogeneity seen in the response of the STHdh^Q111 cells to protection by the compounds, a heterogeneous distribution of pCREB levels was also detected. […]

PKA = PKA (Homo sapiens, UniProt P17612); conditions: cited from earlier work
[5] = test system: cAMP levels in STHdh^Q111 cells; assay: cAMP Enzyme Immunoassay
cells expressing mHTT [6] = assay: Example 2 screen of a larger mechanistically diverse chemical library for protection from mHTT-induced cytotoxicity
cells expressing mHTT [7] = test system: cells expressing mHTT

| Compound | neuroprotective activity in the PI assay (STHdh^Q111 cells [1]) | other results |
| --- | --- | --- |
| CN1[C@@H]2CC[C@H]1CC(OC(=O)c1c[nH]c3ccccc13)C2.Cl (stereo partly shown) [3-tropanyl-indole-3-carboxylate hydrochloride] | confirmed neuroprotective activity |  |
| C/C=C1\C(=O)C[C@H]2[C@@H]3CCC4=CC(=O)CC[C@]4(C)[C@H]3CC[C@]12C [(Z)-Gugglesterone] | confirmed neuroprotective activity |  |
| CC(=O)Nc1nnc(S(N)(=O)=O)s1 [Acetazolamide] | did not protect |  |
| C[C@H]1C[C@H]2[C@@H]3CCC4=CC(=O)C=C[C@]4(C)[C@@]3(Cl)[C@@H](O)C[C@]2(C)[C@@]1(O)C(=O)CO [Beclomethasone] | confirmed neuroprotective activity |  |
| CN1[C@@H]2CC[C@H]1C[C@@H](OC(c1ccccc1)c1ccccc1)C2 [Benztropine mesylate] | confirmed neuroprotective activity | cytoplasmic pPKA, concentration response [2]: concentration-dependent increase; toxicity / protection with or of the PKA inhibitor (STHdh^Q111 cells [3]): increased toxicity |
| CCN[C@H]1CN(CCCOC)S(=O)(=O)c2sc(S(N)(=O)=O)cc21 [Brinzolamide] | did not protect |  |
| O=S(=O)(NCCNC/C=C/c1ccc(Br)cc1)c1cccc2cnccc12 [Combination H89] |  | toxicity / protection with or of the PKA inhibitor (STHdh^Q111 cells [3]): no significant protection or toxicity; levels of nuclear pCREB [4]: decreased; selectivity for PKA over PKG (PKA): ~10 fold |
| CN1CCC(=C2c3ccccc3C=Cc3ccccc32)CC1 [Cyproheptadine hydrochloride] | confirmed neuroprotective activity |  |
| O=c1[nH]c2ccccc2n1CCCN1CCC(n2c(=O)[nH]c3cc(Cl)ccc32)CC1 [Domperidone] | confirmed neuroprotective activity | reduction in the level of protection compared to compound alone (STHdh^Q111 cells [3]): 56% |
| CCN[C@H]1C[C@H](C)S(=O)(=O)c2sc(S(N)(=O)=O)cc21 [Dorzolamide] | did not protect |  |
| CCOc1ccc2nc(S(N)(=O)=O)sc2c1 [Ethoxzolamide] | confirmed neuroprotective activity |  |
| C[C@]12CCC(=O)C=C1CC[C@@H]1[C@@H]2[C@@H](O)C[C@@]2(C)[C@H]1CC[C@]2(O)C(=O)CO [Hydrocortisone] | confirmed neuroprotective activity |  |
| CCC(NC(C)C)C(O)c1ccc(O)c(O)c1 (stereo not shown) [Isotharine mesylate] | confirmed neuroprotective activity | cytoplasmic pPKA, concentration response [2]: concentration-dependent increase; reduction in the level of protection compared to compound alone (STHdh^Q111 cells [3]): 34%; statistical significance of change in cAMP levels ([5]; 15 and 30 minutes, t-test vs DMSO): statistically significant increase |
| CCCn1c(C)c(C(=O)c2cccc3ccccc23)c2ccccc21 [JWH-015] | confirmed neuroprotective activity | protection from mHTT-induced cytotoxicity in the screen (cells expressing mHTT [6]): demonstrating protection |
| Cc1c(OCC(F)(F)F)ccnc1C[S+]([O-])c1nc2ccccc2[nH]1 (stereo not shown) [Lansoprazole] | confirmed neuroprotective activity |  |
| O=C(O)c1nn(Cc2ccc(Cl)cc2Cl)c2ccccc12 [Lonidamine] | confirmed neuroprotective activity |  |
| CN1CCN(C2=Nc3ccccc3Oc3ccc(Cl)cc32)CC1 [Loxapine succinate] | confirmed neuroprotective activity | cytoplasmic pPKA, concentration response [2]: concentration-dependent increase; reduction in the level of protection compared to compound alone (STHdh^Q111 cells [3]): 52% |

| Compound | neuroprotective activity in the PI assay (STHdh^Q111 cells [1]) | other results |
| --- | --- | --- |
| Cc1cccc(CN2CCN(C(c3ccccc3)c3ccc(Cl)cc3)CC2)c1 (stereo not shown) [Meclizine] | confirmed neuroprotective activity |  |
| CN1CCN2c3ccccc3Cc3ccccc3C2C1 (stereo not shown) [Mianserin hydrochloride] | confirmed neuroprotective activity | cytoplasmic pPKA, concentration response [2]: concentration-dependent increase; reduction in the level of protection compared to compound alone (STHdh^Q111 cells [3]): 35% |
| Cc1cccc(C(=O)NCN2CCN(c3ccccc3C#N)CC2)c1.O=C(O)/C=C\C(=O)O [PD 168,077 maleate] | confirmed neuroprotective activity |  |
| COc1ccc(Cc2nccc3cc(OC)c(OC)cc23)cc1OC [Papaverine hydrochloride] | confirmed neuroprotective activity | cytoplasmic pPKA, concentration response [2]: less pronounced; reduction in the level of protection compared to compound alone (STHdh^Q111 cells [3]): 55% |
| C[C@]12C=CC(=O)C=C1CC[C@@H]1[C@@H]2[C@@H](O)C[C@@]2(C)[C@H]1CC[C@]2(O)C(=O)CO [Prednisolone] | confirmed neuroprotective activity |  |
| CN1CCN(c2ccc3ccccc3n2)CC1.O=C(O)/C=C\C(=O)O.O=C(O)/C=C\C(=O)O [Quipazine, N-methyl-, dimaleate] | confirmed neuroprotective activity |  |
| N.N.N.N.N.N.N.N.N.N.N.N.N.N.[Cl-].[Cl-].[Cl-].[Cl-].[Cl-].[Cl-].[O-2].[O-2].[Ru+3].[Ru+3].[Ru+4] [Ruthenium red] | confirmed neuroprotective activity |  |
| CNC(=O)COC(=O)N1CCC(CCc2ccc(Cl)cc2)CC1 [SA 57] |  | protection from mHTT-induced cytotoxicity in the screen (cells expressing mHTT [7]): demonstrating protection |
| O=C(OCCN1CCCCC1)c1c[nH]c2ccccc12 [SB 203186] | confirmed neuroprotective activity |  |
| C[C@]12C=CC(=O)C=C1CC[C@H]1[C@@H]3C[C@@H](O)[C@](O)(C(=O)CO)[C@@]3(C)C[C@H](O)[C@@]12F [Triamcinolone] | confirmed neuroprotective activity |  |
| Cc1ccc(/C(=C\CN2CCCC2)c2ccccn2)cc1 [Triprolidine hydrochloride] | confirmed neuroprotective activity |  |
| Cc1c(C)c2c(c(C)c1O)CCC(C)(CN1CCN(c3cc(N4CCCC4)nc(N4CCCC4)n3)CC1)O2.Cl.Cl (stereo not shown) [U-83836 dihydrochloride] | confirmed neuroprotective activity |  |
| CCOC(=O)C1=C[C@]2(CC)CCCN3CCc4c(n1c1ccccc41)[C@@H]32 [Vinpocetine] | confirmed neuroprotective activity |  |
| O=C(CCCCCCC(=O)Nc1ccccc1)NO [Vorinostat] | confirmed neuroprotective activity |  |
| C=C[C@@]1(C)CC(=O)[C@]2(O)[C@@]3(C)[C@@H](O)CCC(C)(C)[C@@H]3[C@H](O)[C@H](OC(C)=O)[C@@]2(C)O1 [forskolin] |  | increase in cAMP over the DMSO control ([5]; 15 minutes after compound treatment in the presence of serum): 250 fold |
| Tetradecylthioacetic acid | confirmed neuroprotective activity |  |
| m-Iodobenzylguanidine hemisulfate | confirmed neuroprotective activity |  |

— US11253594B2, “Drug combinations for protecting against neuronal cell death” (UNIVERSITY OF PITTSBURGH-OF THE COMMONWEALTH SYSTEM OF …, priority 2017, dated 2022)
